One assay concerns the target T1, ER (estrogen receptor) (Homo sapiens, UniProt P03372).
T1 construct: MCF-7/ERE-luciferase monoclonal cells were selected by transfection of MCF-7; host or cells: MCF-7/ERE-luciferase (only the ERE-luciferase reporter was transfected)
T1 sequence (P03372 1-595): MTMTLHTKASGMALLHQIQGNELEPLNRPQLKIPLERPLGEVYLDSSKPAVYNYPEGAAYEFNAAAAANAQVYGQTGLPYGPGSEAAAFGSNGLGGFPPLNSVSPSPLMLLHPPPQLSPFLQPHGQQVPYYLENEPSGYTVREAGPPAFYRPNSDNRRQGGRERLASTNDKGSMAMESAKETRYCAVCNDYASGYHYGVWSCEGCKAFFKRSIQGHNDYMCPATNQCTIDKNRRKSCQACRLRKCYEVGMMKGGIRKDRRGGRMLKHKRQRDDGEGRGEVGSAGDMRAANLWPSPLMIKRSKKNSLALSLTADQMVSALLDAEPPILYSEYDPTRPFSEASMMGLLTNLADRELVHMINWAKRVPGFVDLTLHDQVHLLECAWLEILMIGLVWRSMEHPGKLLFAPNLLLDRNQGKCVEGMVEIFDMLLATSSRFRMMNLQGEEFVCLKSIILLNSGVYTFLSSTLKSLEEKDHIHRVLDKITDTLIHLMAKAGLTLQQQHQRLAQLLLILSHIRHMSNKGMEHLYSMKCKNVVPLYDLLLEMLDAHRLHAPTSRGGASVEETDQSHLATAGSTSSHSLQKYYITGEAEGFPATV
Nature of the assay: Inhibition of the binding of estrogen (E) to estrogen receptor (ER), MCF-7/ERE-luciferase reporter cells. In kind it is cell-based. The following applies: MCF-7/ERE-luciferase cells, 0.1 nM estradiol, 24 hours, chemiluminescence; read-out: IC50 value of inhibition effect on the binding of E to ER. On the procedure:
The compounds of the present invention have an inhibition effect on the binding of E (estrogen) to ER (estrogen receptor), thereby blocking the binding of a complex of E and ER complex to ERE (estrogen responsive element), and subsequently blocking the expression of downstream luciferase protein.
The inhibition effect of the compounds on the binding of E to ER in vitro was tested by the following method.
The object of this experiment was to determine the inhibition effect of the compounds on the binding of E to ER, and the in vitro activity of the compounds was evaluated according to the IC50 values.
ERE was cloned into the upstream of the luciferase gene, and MCF-7/ERE-luciferase monoclonal cells were selected by transfection of MCF-7 (Cell Bank of Chinese Academy of Sciences typical culture preservation Committee, TCHu74). MCF-7/ERE-luciferase cells were inoculated into the MEM medium (hyclone, SH30024.01B) containing 10% charcoal stripped FBS (Moregate, FBSF), 1% sodium pyruvate (Sigma, S8636), 1% nonessential amino acids (Sigma, M7145) and 500 μg/ml G418 in a 96-well plates with a density of 30,000 cells/well, and the cells were incubated under the conditions of 37° C., and 5% CO2. The drug was prepared as a 20 mM stock solution that was later diluted with 100% DMSO in 10 fold concentration gradient, and then diluted 20-fold with the medium DMEM. After incubation for 24 hours, the medium was removed, then 0.1 nM estradiol (Sigma, E2758) and 10 μl of the drug diluted with the medium were added to each well, and the control group was added with DMSO. The plate was gently shaken and incubated in a incubator at 37° C., 5% CO2. After 24 hours, the cell culture medium was discarded, Then, 50 μl of the prepared luciferase substrate (Promega, E6110) was added to each well, and the plate was placed in the dark at room temperature for 10-15 minutes, then the chemiluminescence signal value was determined.
The inhibition effect of the compounds of the present invention on the binding of E to ER was tested by the experiment described above. The values of the chemiluminescence signal vs the logarithmic concentrations of the compounds were plotted using Graphpad Prism, and the measured IC50 values are shown in Table 1.
Background: In a reporter assay the amount or activity of a reporter protein is the signal.

The test system of the next assay is MCF7 cells. Nature of the assay: Inhibition of the proliferation of MCF7 cells (Cell Titer-Glo). It counts as cell-based. The following applies: Homo sapiens, MCF-7 cells, 72 hours, read-out: IC50 value of inhibition effect on the proliferation of MCF7 cells. On the procedure:
The object of this experiment was to determine the inhibition effect of the compounds on the proliferation activity of MCF7 cells, and the in vitro activity of the compounds was evaluated according to the IC50 values.
MCF-7 cells (Cell Bank of Chinese Academy of Sciences typical culture preservation Committee, TChu 74) were inoculated into the MEM medium (Hyclone, SH30024.01B) containing 10% FBS (Gibco, 10099-141), 1% sodium pyruvate (Sigma, S8636), and 1% nonessential amino acids (Sigma, M7145) in a 96-well plate with a density of 40,000 cells/well, and the cells were incubated under the conditions of 37° C., and 5% CO2. The compound was prepared as a 20 mM stock solution that was later diluted to 1000× final concentration with 100% DMSO, and then diluted with 20-fold medium containing 2% FBS. After incubation for 24 hours, the medium was removed and 90 μl of the medium containing 2% FBS and 10 μl of the drug were added to each well, 10 […] of DMSO was added to the control group, and the blank group contained only 100 μl medium containing 2% FBS. The plate was gently shaken and incubated in a incubator at 37° C., 5% CO2. After 72 hours later, 50 μl of mixed Cell Titer-Glo (Promega, G7571) was added to each well. The plate was shaken until the ingredients were mixed uniformly, and placed at room temperature for 10 minutes, then the chemiluminescence signal value was determined. The inhibition effect of the compound AZD9496 at 100 nM on the proliferation of MCF-7 cells was set to 100%, the maximum inhibition rate of other compounds=(chemiluminescence signal valuenegative control−chemiluminescence signal valuecompound 100 nm)/(chemiluminescence signal valuenegative control−chemiluminescence signal valueAZD9496 100 nm)×100%, and the negative control was a well with 0.5% DMSO.
The values of the chemiluminescence signals vs the logarithmic concentrations of the compounds were plotted using Graghpad Prism to obtain the IC50 values.
(In ATP-based viability assays light output follows the ATP content of the culture.)

The structures appear in SMILES notation.

On to `CCc1ccc(N2C(C)Cc3cc(-c4cnn(CC)c4)ccc3C2c2ccc(/C=C/C(=O)O)cc2)cc1` [Example 17, (E)-3-(4-((1R,3R/1S,3S)-6-(1-Ethyl-1H-pyrazol-4-yl)-2-(4-ethylphenyl)-3-methyl-1,2,3,4-tetrahydroisoquinolin-1-yl)phenyl)acrylic acid], for which the values for the IC50 on ER (estrogen receptor) and in the assay with MCF7 cells were 3.32 nM and 0.65 nM, respectively.

Consider `CCn1cc(-c2ccc3c(c2)C[C@@H](C)N(c2ccc(C4CC4)cc2C)[C@@H]3c2ccc(/C=C/C(=O)O)cc2)cn1` [Example 28, (E)-3-(4-((1R,3R)-2-(4-Cyclopropyl-2-methylphenyl)-6-(1-ethyl-1H-pyrazol-4-yl)-3-methyl-1,2,3,4-tetrahydroisoquinolin-1-yl)phenyl)acrylic acid], for which the IC50 on ER (estrogen receptor) stood at 0.42 nM; in the assay on MCF7 cells it was 0.31 nM.

On to `CC(C)c1ccc(N2C(C)Cc3cc(-c4cn[nH]c4)ccc3C2c2ccc(/C=C/C(=O)O)cc2)cc1` [Example 48, (E)-3-(4-((1R,3R/1S,3S)-2-(4-Isopropylphenyl)-3-methyl-6-(1H-pyrazol-4-yl)-1,2,3,4-tetrahydroisoquinolin-1-yl)phenyl)acrylic acid], for which the IC50 was determined as 0.71 nM on ER (estrogen receptor) and 0.59 nM with MCF7 cells.

Consider `Cc1ccc(N2C(C)Cc3cc(-c4cnn(C)c4)ccc3C2c2ccc(/C=C/C(=O)O)cc2)c(C)c1` [Example 37, (E)-3-(4-((1R,3R/1S,3S)-2-(2,4-Dimethylphenyl)-3-methyl-6-(1-methyl-1H-pyrazol-4-yl)-1,2,3,4-tetrahydroisoquinolin-1-yl)phenyl)acrylic acid], for which the IC50 came out at 0.84 nM on ER (estrogen receptor) and 1.74 nM in the assay on MCF7 cells.

`CCn1cc(-c2ccc3c(c2)CC(C)N(c2ccc(C4CC4)cc2)C3c2ccc(/C=C/C(=O)O)cc2)cn1` [Example 13, (E)-3-(4-((1R,3R/1S,3S)-2-(4-Cyclopropylphenyl)-6-(1-ethyl-1H-pyrazol-4-yl)-3-methyl-1,2,3,4-tetrahydroisoquinolin-1-yl)phenyl)acrylic acid]: the IC50 was found to be 0.27 nM at ER (estrogen receptor) and 1.12 nM in the assay with MCF7 cells.

Consider `CCn1cc(-c2ccc3c(c2)CC(C)N(c2ccc(C4CC4)cc2Cl)C3c2ccc(/C=C/C(=O)O)cc2)cn1` [Example 24, (E)-3-(4-((1R,3R/1S,3S)-2-(2-Chloro-4-cyclopropylphenyl)-6-(1-ethyl-1H-pyrazol-4-yl)-3-methyl-1,2,3,4-tetrahydroisoquinolin-1-yl)phenyl)acrylic acid], for which the IC50 on ER (estrogen receptor) is 1.81 nM; in the assay on MCF7 cells, 0.9 nM.

Turning to `CCn1cc(-c2ccc3c(c2)C[C@@H](C)N(c2ccc(C4CC4)cc2)[C@@H]3c2c(F)cc(/C=C/C(=O)O)cc2F)cn1` [Example 32], the IC50 is 0.74 nM at ER (estrogen receptor) and 0.42 nM in the assay with MCF7 cells.

For `CC1Cc2cc(-c3cnn(C)c3)ccc2C(c2ccc(/C=C/C(=O)O)cc2)N1c1ccc(CC2CC2)cc1` [Example 47, (E)-3-(4-((1R,3R/1S,3S)-2-(4-(Cyclopropylmethyl)phenyl)-3-methyl-6-(1-methyl-1H-pyrazol-4-yl)-1,2,3,4-tetrahydroisoquinolin-1-yl)phenyl)acrylic acid], the IC50 on ER (estrogen receptor) was found to be 5.39 nM; with MCF7 cells it was 4.9 nM.

As to `CCn1cc(-c2ccc3c(c2)CC(C)N(c2ccc(C4CC4)cc2F)C3c2ccc(/C=C/C(=O)O)cc2)cn1` [Example 22, (E)-3-(4-((1R,3R/1S,3S)-2-(4-Cyclopropyl-2-fluorophenyl)-6-(1-ethyl-1H-pyrazol-4-yl)-3-methyl-1,2,3,4-tetrahydroisoquinolin-1-yl)phenyl)acrylic acid], the IC50 turned out to be 1 nM at ER (estrogen receptor) and 0.57 nM with MCF7 cells.

For the compound `CCn1cc(-c2ccc3c(c2)C[C@@H](C)N(c2ccc(C(C)C)cc2)[C@@H]3c2c(F)cc(/C=C/C(=O)O)cc2F)cn1` [Example 38, (E)-3-(4-((1S,3R)-6-(1-Ethyl-1H-pyrazol-4-yl)-2-(4-isopropylphenyl)-3-methyl-1,2,3,4-tetrahydroisoquinolin-1-yl)-3,5-difluorophenyl)acrylic acid], the IC50 at ER (estrogen receptor) turned out to be 0.18 nM; in the assay with MCF7 cells, 0.38 nM.

Regarding `Cc1ncc(-c2ccc3c(c2)CC(C)N(c2ccc(C4CC4)cc2)C3c2ccc(/C=C/C(=O)O)cc2)s1` [Example 35, (E)-3-(4-((1R,3R/1S,3S)-2-(4-Cyclopropylphenyl)-3-methyl-6-(2-methylthiazol-5-yl)-1,2,3,4-tetrahydroisoquinolin-1-yl)phenyl)acrylic acid], the values for the IC50 on ER (estrogen receptor) and with MCF7 cells were 1 nM and 1.03 nM, respectively.

Consider `CCn1cc(-c2ccc3c(c2)CC(C)N(c2ccc(C4CC4)cc2)C3c2ccc(/C=C/C(=O)O)cc2F)cn1` [Example 25, (E)-3-(4-((1S,3R/1R,3S)-2-(4-Cyclopropylphenyl)-6-(1-ethyl-1H-pyrazol-4-yl)-3-methyl-1,2,3,4-tetrahydroisoquinolin-1-yl)-3-fluorophenyl)acrylic acid], for which the IC50 on ER (estrogen receptor) was 1.62 nM; in the assay with MCF7 cells, 0.89 nM.
